Source: patent US6992060B2, “Prolonged efficacy of islet neogenesis therapy methods with a gastrin/CCK receptor ligand and an EGF receptor ligand composition in subjects with preexisting diabetes” (Waratah Pharmaceuticals, Inc., priority 2001, dated 2006)

Tested on: rats
Assay: Induction of diabetes by intravenous streptozotocin
Assay type: in vivo, rat
Conditions: 50 mg/kg intravenous injection
Procedure: Diabetes was induced by intravenous injection with 50 mg/kg streptozotocin (STZ), which reduced pancreatic insulin content by 95%. One week later, STZ diabetic rats (of weight 200–250 g) were administered either the vehicle alone as a control (labeled CON in FIG. 1), or were administered a combination of human gastrin 17 (4 μg/kg) and human TGFα (4 μg/kg) peptides (labeled GAS/TGF) by once-daily, intraperitoneal injections for 12 days. At 1, 2, 4 and 8 weeks after treatment, intraperitoneal glucose tolerance tests (IPGTT) were performed, to measure both blood glucose levels, and plasma insulin levels, in response to a challenge amount of glucose.

## CN(N=O)C(=O)N[C@H]1C(O)O[C@H](CO)[C@@H](O)[C@@H]1O (mixture of isomers) [streptozotocin]
  reduction of pancreatic insulin content: 95%
